Laboratory results reported in article PMC5108039, “Functional and Structural Characterization of a Novel HLA-DRB1*04:01-Restricted α-Enolase T Cell Epitope in Rheumatoid Arthritis” (Frontiers in Immunology, 2016).
Square brackets hold non-standard residues; d marks the D form. Peptide text beside a SMILES is read from it. Cit = NC(=O)NCCC[C@H](N)C(=O)O

Experiments:
[1] = target: HLA-DRB1*04:04 (Homo sapiens, UniProt P01903+P01911, A100R/A169T/F76Y/I96L/K127E/L162R/M171V/N62H/P40V/Q125Y/R42H/S133A/S149N/S66Y/V209L/W38E); assay: Competition peptide-binding assay, HLA-DRB1*04:04; conditions: competition with 0.02 μM biotinylated GAD65 270–285, plate-bound HLA-DRB1*04:04, increasing peptide concentrations; read-out: IC50 *04:04
Experimental: Stepwise binding analysis of 15-mer peptides derived from both native and citrullinated α-enolase to HLA-DRB1*01, *04:01, and *04:04 was performed using the ProImmune Class II Reveal assay (ProImmune, Oxford, UK). Relevant peptides were thereafter synthesized by GenScript (Piscataway, NJ, USA) and used for competition peptide-binding assays. […] Finally, peptide-binding affinity to the three different HLA alleles was assessed in direct binding assays in which N-terminally biotinylated epitopes (GenScript, Piscataway, NJ, USA) were incubated at concentrations from 5 to 0.05 μM with plate-bound relevant HLA-DRB1 molecules in the absence of a competitor peptide ([22]). The inflection point of the binding curve of a known binding epitope was used as a cutoff to separate weakly binding epitopes from background. […]

[2] = target: HLA-DRB1*01:01 (Homo sapiens, UniProt P01903+P01911, A100R/D57E/F55L/F60I/F76Y/I96L/L162R/M171V/P40L/Q125E/R42F/V115G/Y59C); assay: Competition peptide-binding assay, HLA-DRB1*01:01; conditions: competition with 0.02 μM biotinylated HA306–318, plate-bound HLA-DRB1*01:01, increasing peptide concentrations; read-out: IC50 *01:01
Experimental: Stepwise binding analysis of 15-mer peptides derived from both native and citrullinated α-enolase to HLA-DRB1*01, *04:01, and *04:04 was performed using the ProImmune Class II Reveal assay (ProImmune, Oxford, UK). Relevant peptides were thereafter synthesized by GenScript (Piscataway, NJ, USA) and used for competition peptide-binding assays. […] Finally, peptide-binding affinity to the three different HLA alleles was assessed in direct binding assays in which N-terminally biotinylated epitopes (GenScript, Piscataway, NJ, USA) were incubated at concentrations from 5 to 0.05 μM with plate-bound relevant HLA-DRB1 molecules in the absence of a competitor peptide ([22]). The inflection point of the binding curve of a known binding epitope was used as a cutoff to separate weakly binding epitopes from background.
We decided to make use of HLA-DRB1*01:01 as a representative model for HLA-DRB1*01.

[3] = tested on: cultured PBMCs from RA patients; assay: Bead-based multiplex cytokine assay in culture supernatants; assay type: cell-based, human; conditions: supernatants of cultured PBMCs, day 5, Luminex panel IL-10, IL-13, IL-17A, IL-17F, TNF-α, IFN-γ
Experimental: A bead-based multiplex cytokine assay was custom-designed by Invitrogen for simultaneous detection of IL-10, IL-13, IL-17A, IL-17F, TNF-α, and IFN-γ on a Luminex platform. Supernatants were collected at day 5 and stored at −80°C until used. Supernatants from RA patients were analyzed using the Luminex 100 system according to the manufacturer’s instructions.

[4] = target: HLA-DRB1*04:01 (Homo sapiens, UniProt P01903+P01911, A100K/A169T/F76Y/I96L/K127E/L162R/M171V/N62H/P40V/Q125Y/R42H/S133A/S149N/S66Y/V115G/V209L/W38E); assay: biochemical
Experimental: The HLA-DR binding capacity of the identified peptides was assessed through in vitro competition binding assays in which native and citrullinated candidate epitopes were tested for their capacity to displace an established reference peptide (Figure 2; Table 2).

| SMILES | IC50 [1] | IC50 [2] | cytokine response in supernatants compared to the native peptide form [3] | IC50 [4] |
| --- | --- | --- | --- | --- |
| CC[C@H](C)[C@H](NC(=O)[C@H](Cc1c[nH]cn1)NC(=O)[C@H](CCC(=O)O)NC(=O)[C@@H](NC(=O)[C@H](C)NC(=O)[C@H](CCCCN)NC(=O)[C@H](CO)NC(=O)[C@@H](NC(=O)CNC(=O)[C@H](CCCCN)NC(=O)CNC(=O)[C@H](CCSC)NC(=O)[C@H](Cc1ccc(O)cc1)NC(=O)[C@@H](N)CCCNC(N)=O)C(C)C)C(C)C)C(=O)N[C@@H](CC(N)=O)C(=O)O [cit56] (H-[Cit]YMGKGVSKAVEHIN-OH; N-terminus and C-terminus assumed) | > 50 µM | > 50 µM | strong responses | – |
| CC[C@H](C)[C@H](NC(=O)[C@H](CCCCN)NC(=O)[C@H](CC(C)C)NC(=O)[C@@H](NC(=O)[C@H](CO)NC(=O)[C@@H](N)CCSC)[C@@H](C)CC)C(=O)N[C@@H](Cc1c[nH]cn1)C(=O)N[C@@H](C)C(=O)N[C@@H](CCCNC(=N)N)C(=O)N[C@@H](CCC(=O)O)C(=O)N[C@H](C(=O)N[C@@H](Cc1ccccc1)C(=O)N[C@@H](CC(=O)O)C(=O)N[C@@H](CO)C(=O)N[C@@H](CCCNC(=N)N)C(=O)O)[C@@H](C)CC [peptide 1] (H-MSILKIHAREIFDSR-OH) | > 50 µM | 3.5 µM | – | > 50 µM |
| CC(C)C[C@H](NC(=O)CNC(=O)[C@H](CCCCN)NC(=O)[C@H](CO)NC(=O)[C@@H](N)[C@@H](C)O)C(=O)N[C@@H](Cc1ccccc1)C(=O)N[C@@H](CCCNC(=N)N)C(=O)N[C@@H](C)C(=O)N[C@@H](C)C(=O)N[C@H](C(=O)N1CCC[C@H]1C(=O)N[C@@H](CO)C(=O)NCC(=O)N[C@@H](C)C(=O)N[C@@H](CO)C(=O)O)C(C)C [peptide 26] (H-TSKGLFRAAVPSGAS-OH) | 0.5 µM | 1.4 µM | – | 4 µM |
| CC(C)C[C@H](NC(=O)[C@@H]1CCCN1C(=O)[C@H](CC(N)=O)NC(=O)[C@H](CCCNC(=N)N)NC(=O)[C@H](Cc1ccccc1)NC(=O)[C@H](CC(N)=O)NC(=O)[C@H](CCCNC(=N)N)NC(=O)CNC(=O)[C@H](C)NC(=O)[C@H](Cc1ccccc1)NC(=O)[C@H](CCCCN)NC(=O)[C@H](C)NC(=O)[C@@H](N)CCCCN)C(=O)N[C@@H](C)C(=O)N[C@@H](CCCCN)C(=O)O [peptide 420] (H-KAKFAGRNFRNPLAK-OH) | 25 µM | > 50 µM | – | > 50 µM |
